Experimental data taken from PubChem BioAssay AID1963834 (Molecular Pharmacology Branch, DTP, NCI, 2024).

Tested on: 873145-292-R-J1-PDC complex spheroid viability
Test: Anticancer human tumor 873145-292-R-J1-PDC patient-derived renal clear cell carcinoma cell line growth inhibition [POLQ]
Settings: for IC50: curve of first compound; for viability, T/C: stronger effect = lower value
Protocol: Multicellular complex tumor spheroid response to Polymerase (POL) inhibitors (novobiocin, ART-558, RP6685) in combination with a variety of drugs and investigational agents in selected tumor cell lines
The POL inhibitors (novobiocin, ART-558, and RP6685) were evaluated both individually and in combination with standard of care and investigational anticancer small molecules within a complex spheroid model of solid tumors. . Complex spheroids include a stromal component modeled by human endothelial cells (HUVEC) and fibroblasts modeled by human mesenchymal stem cells (MSCs). The concentration ranges selected for each drug and investigational agent were based upon clinically achievable concentrations if the clinical Cmax of the agent was known.
Compounds. The drugs and investigational agents: novobiocin (NSC847541), ART-558 (NSC835418), RP-6685 (NSC848927), peposertib (NSC802822), ceralasertib (NSC780249), elimusertib (NSC800525), camonsertib (NSC841442), AZD-1390 (NSC803789), olaparib (NSC753686), talazoparib (NSC767125), rucaparib (NSC756644), sotorasib (NSC818433), MRTX-1133 (NSC836407), SN-38 (NSC673596), topotecan (NSC609699), epotoside (NSC141540), doxorubicin (NSC123127), gemcitabine (NSC613327), 5-fluorouracil (NSC19893), paclitaxel (NSC125973), vemurafenib (NSC761431), MSA-2 (NSC828583), SN-011 (NSC837082), adavosertib (NSC754352), prexasertib (NSC758257), carboplatin (NSC241240) and oxaliplatin (NSC266046), were obtained from the National Cancer Institute (NCI) Developmental Therapeutics Program Chemical Repository (21). The FDA-approved anticancer drug set is available from the Developmental Therapeutics Program at https://dtp.cancer.gov/organization/dscb/obtaining/. […] The stock solutions were prepared in dimethyl sulfoxide (DMSO, Sigma-Aldrich, St. Louis, MO, cat. D2650), except for the platinum compounds which were prepared in saline (Quality Biological, Gaithersburg, MD, cat. 114-055-101), at 800-fold the tested concentration and stored at -70 degrees C prior to their use. All drugs and investigational agents were tested over a range starting from a high concentration at or near the clinical Cmax and decreasing in half-log increments. If the clinical Cmax for an agent had not been determined, the highest concentration tested was 10 microM, except for SN-38, which was tested at a high concentration of 1 microM.
Cell Culture. All cells were maintained in an incubator at 37 degrees C and 5% CO2 with 95% humidity. The PDC lines were cultured according to standard operating procedures established by the NCI PDMR (https://pdmr.cancer.gov). Table 3 of the manuscript, lists the cell lines along with the number of the three cell types plated to form the mct-spheroids and media for tumor cell growth. After thawing, all PDC lines, except 997537-175-T-J1-PDC and 415267-285-R-J2-PDC, were cultured in Matrigel-coated flasks prepared with a working solution of 1X Ham's F-12 nutrient mix, without supplementation (Thermo Fisher Scientific, cat. 11765054), 100 U/mL penicillin-streptomycin (Thermo Fisher Scientific, cat. 15140122), and 2.5% Matrigel (Corning Inc., Corning, NY, cat. 354248) for the first three passages. The two PDC lines 997537-175-T-J1-PDC and 415267-285-R-J2-PDC were cultured on uncoated flasks. The 857933-349-R-J2-PDC line was cultured in 6C/Colon 1B media containing advanced DMEM/F-12 (Thermo Fisher Scientific, cat. 12634028), 10 mM HEPES (Thermo Fisher Scientific, cat. 15630080), 1X GlutaMAX supplement (Thermo Fisher Scientific, cat. 35050061), 0.1 mg/mL primocin (InvivoGen, San Diego, CA, cat. ant-pm-2), 10% defined fetal bovine serum, heat inactivated (HyClone Laboratories Inc., Logan, UT, cat. SH30070.03HI), 50% L-WRN conditioned media (ATCC, cat. CRL-3276), 1.25 mM N-Acetyl-L-cysteine (Sigma-Aldrich, cat. A9165), 10 mM nicotinamide (Sigma-Aldrich, cat. N0636), 1X B-27 supplement (Thermo Fisher Scientific, cat. 17504044), 1X N-2 supplement (Thermo Fisher Scientific, cat. […]
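Further: spheroids exposed to compounds for 7 days before viability readout.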
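Wherever viability, T/C is given: luminescence signal used as surrogate for viable cell content; 100% = DMSO vehicle control viability.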

## CCc1cc2c(N3CCc4c(cc(Cn5ccnc5)cc4-c4cn(C)nc4C(F)(F)F)C3=O)cc(C)nc2c(OC)n1 + Nc1ccc(C#CCN(C(=O)Cc2ncc(C(F)(F)F)cc2C(F)(F)F)c2ccc(F)cc2)nn1
Second compound 0.0316 µM
  IC50: > 10 µM
Second compound 0.1 µM
  IC50: > 10 µM
Second compound 0.316 µM
  IC50: > 10 µM
Second compound 1 µM
  IC50: > 10 µM
Second compound 3.16 µM
  IC50: > 10 µM
Second compound 10 µM
  IC50: > 10 µM
Second compound 0.0316 µM, first compound 0.0316 µM
  viability, T/C: 92.6%
Second compound 0.0316 µM, first compound 0.1 µM
  viability, T/C: 110%
Second compound 0.0316 µM, first compound 0.316 µM
  viability, T/C: 101%
Second compound 0.0316 µM, first compound 1 µM
  viability, T/C: 91.2%
Second compound 0.0316 µM, first compound 3.16 µM
  viability, T/C: 80.6%
Second compound 0.0316 µM, first compound 10 µM
  viability, T/C: 75.2%
Second compound 0.1 µM, first compound 0.0316 µM
  viability, T/C: 103%
Second compound 0.1 µM, first compound 0.1 µM
  viability, T/C: 100%
Second compound 0.1 µM, first compound 0.316 µM
  viability, T/C: 77.9%
Second compound 0.1 µM, first compound 1 µM
  viability, T/C: 93%
Second compound 0.1 µM, first compound 3.16 µM
  viability, T/C: 79.2%
Second compound 0.1 µM, first compound 10 µM
  viability, T/C: 68.6%
Second compound 0.316 µM, first compound 0.0316 µM
  viability, T/C: 94.4%
Second compound 0.316 µM, first compound 0.1 µM
  viability, T/C: 109%
Second compound 0.316 µM, first compound 0.316 µM
  viability, T/C: 74%
Second compound 0.316 µM, first compound 1 µM
  viability, T/C: 90.7%
Second compound 0.316 µM, first compound 3.16 µM
  viability, T/C: 95.8%
Second compound 0.316 µM, first compound 10 µM
  viability, T/C: 73.6%
Second compound 1 µM, first compound 0.0316 µM
  viability, T/C: 101%
Second compound 1 µM, first compound 0.1 µM
  viability, T/C: 92.5%
Second compound 1 µM, first compound 0.316 µM
  viability, T/C: 91.9%
Second compound 1 µM, first compound 1 µM
  viability, T/C: 95.8%
Second compound 1 µM, first compound 3.16 µM
  viability, T/C: 77.6%
Second compound 1 µM, first compound 10 µM
  viability, T/C: 76.8%
Second compound 3.16 µM, first compound 0.0316 µM
  viability, T/C: 97.9%
Second compound 3.16 µM, first compound 0.1 µM
  viability, T/C: 104%
Second compound 3.16 µM, first compound 0.316 µM
  viability, T/C: 97.6%
Second compound 3.16 µM, first compound 1 µM
  viability, T/C: 93%
Second compound 3.16 µM, first compound 3.16 µM
  viability, T/C: 85.7%
Second compound 3.16 µM, first compound 10 µM
  viability, T/C: 78.9%
Second compound 10 µM, first compound 0.0316 µM
  viability, T/C: 105%
Second compound 10 µM, first compound 0.1 µM
  viability, T/C: 101%
Second compound 10 µM, first compound 0.316 µM
  viability, T/C: 98%
Second compound 10 µM, first compound 1 µM
  viability, T/C: 97.3%
Second compound 10 µM, first compound 3.16 µM
  viability, T/C: 89%
Second compound 10 µM, first compound 10 µM
  viability, T/C: 69.2%
